Experimental data from PMC7855449 (European journal of medicinal chemistry, 2020).

Key:
[1] = Pharmacokinetic studies in mice; assay type: in vivo, female CD-1 mice; settings: i.p. exposure corrected for PPB
[2] = reported for 1a at 10 mg/kg, oral; cited from earlier work
[3] = tested on: patient-derived HGSOC tumor spheroids; experiment: Patient derived spheroid assay with Taxol; assay type: cell-based

| Structure (SMILES) | unbound drug AUC0-7h obs [1] [µM·h] | AUC0-∞ [2] [µM·h] | single agent toxicity [3] |
| --- | --- | --- | --- |
| CC(Sc1nc2nn(C3COC3)cc2c(=O)n1-c1ccccc1)c1ccccc1 (centres unmarked) [Compound 68, 2-(oxetan-3-yl)-5-phenyl-6-((1-phenylethyl)thio)-2H-pyrazolo[3,4-d]pyrimidin-4(5H)-one] | 0.6 |  |  |
| CS(=O)(=O)N1CCN(C(=O)c2cnc3ccc(F)cc3c2-c2ccc(C3(C#N)CC3)cc2)CC1 [Compound 1a] |  | 14.6 |  |
| CC(Sc1nc2nn(C3COC3)cc2c(=O)n1-c1ccccc1)c1ccccn1 (centres unmarked) [Compound 69, 2-(oxetan-3-yl)-5-phenyl-6-((1-(pyridin-2-yl)ethyl)thio)-2H-pyrazolo[3,4-d]pyrimidin-4(5H)-one] | 1.1 |  | no single agent toxicity |
| CC(Sc1nc2nn(C3(C)COC3)cc2c(=O)n1-c1ccccc1)c1ccccc1 (centres unmarked) [Compound 74, 2-(3-methyloxetan-3-yl)-5-phenyl-6-((1-phenylethyl)thio)-2H-pyrazolo[3,4-d]pyrimidin-4(5H)-one] | 0.5 |  |  |
